Where two headings read alike, the source gives them in different places.
Biological target: T1, progesterone receptor (PR) (Homo sapiens, UniProt P06401)
T1 construct: Effects of Progestins and Antiprogestins on Alkaline Phosphatase Activity in T47D Cells; endogenous in cells; host or cells: T47D cells
T1 sequence (P06401 1-933): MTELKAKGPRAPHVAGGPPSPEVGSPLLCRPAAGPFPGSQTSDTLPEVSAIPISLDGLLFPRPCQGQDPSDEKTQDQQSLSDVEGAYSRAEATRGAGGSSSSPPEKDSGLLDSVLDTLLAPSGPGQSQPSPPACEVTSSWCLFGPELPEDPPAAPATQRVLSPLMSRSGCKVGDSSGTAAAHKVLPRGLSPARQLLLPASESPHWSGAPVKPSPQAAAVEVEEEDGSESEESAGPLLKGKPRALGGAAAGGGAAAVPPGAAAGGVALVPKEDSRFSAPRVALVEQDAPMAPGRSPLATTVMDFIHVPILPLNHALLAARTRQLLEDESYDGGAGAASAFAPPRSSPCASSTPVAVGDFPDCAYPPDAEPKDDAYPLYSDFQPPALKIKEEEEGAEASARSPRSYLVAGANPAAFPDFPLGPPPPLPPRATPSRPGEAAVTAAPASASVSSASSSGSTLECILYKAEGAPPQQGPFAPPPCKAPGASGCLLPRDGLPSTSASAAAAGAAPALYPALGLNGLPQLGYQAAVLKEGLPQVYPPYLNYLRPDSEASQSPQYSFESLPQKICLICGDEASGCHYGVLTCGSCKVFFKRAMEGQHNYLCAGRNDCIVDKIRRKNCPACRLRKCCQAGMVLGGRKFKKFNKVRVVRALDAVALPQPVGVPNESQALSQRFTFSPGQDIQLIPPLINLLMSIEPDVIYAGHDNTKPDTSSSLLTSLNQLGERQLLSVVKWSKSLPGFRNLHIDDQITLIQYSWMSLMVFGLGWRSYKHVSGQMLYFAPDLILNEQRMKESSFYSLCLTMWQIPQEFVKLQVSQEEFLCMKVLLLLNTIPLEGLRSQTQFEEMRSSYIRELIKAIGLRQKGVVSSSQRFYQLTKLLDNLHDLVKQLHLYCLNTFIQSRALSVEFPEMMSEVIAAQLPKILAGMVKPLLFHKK
Experiment: T47D cell alkaline phosphatase assay (antagonist mode)
Type: cell-based
Description: A. Effects of Progestins and Antiprogestins on Alkaline Phosphatase Activity in T47D Cells (T47D Alkaline Phosphatase Assay)
Culture medium: DMEM:F12 (1:1) (GIBCO, BRL) supplemented with 5% (v/v) charcoal stripped fetal bovine serum (not heat-inactivated), 100 U/mL penicillin, 100 μg/mL streptomycin, and 2 mM GlutaMax (GIBCO, BRL).
Alkaline phosphatase assay buffer: I. 0.1M Tris-HCl, pH 9.8, containing 0.2% Triton X-100, 0.1M Tris-HCl, pH 9.8, containing 4 mM p-nitrophenyl phosphate (Sigma).
2. Cell Culture and Treatment:
Frozen T47D cells are thawed in a 37° C. water bath and diluted to 280,000 cells/mL in culture medium. To each well in a 96-well plate (Falcon, Becton Dickinson Labware), 180 μl of diluted cell suspension is added. Twenty μl of reference or test compounds diluted in the culture medium is then added to each well. When testing for progestin antagonist activity, reference antiprogestins or test compounds are added in the presence of 1 nM progesterone. The cells are incubated at 37° C. in a 5% CO2 humidified atmosphere for 24 hours. For high throughput screening, one concentration of each compound will be tested at 0.3 μg/mL. Based on an average molecular weight of 300 g/mol for the compounds in the library, the concentration is approximately 1 μM. Subsequently, active compounds will be tested in dose response assays to determine EC50 and IC50.
3. Alkaline Phosphatase Enzyme Assay:
At the end of treatment, the medium is removed from the plate. Fifty μl of assay buffer I is added to each well. The plates are shaken in a titer plate shaker for 15 min. Then 150 μl of assay buffer II is added to each well. Optical density measurements are taken at 5 min intervals for 30 min at a test wavelength of 405 nm.
4. Analysis of Dose-Response Data.
For reference and test compounds, a dose response curve is generated for dose vs. the rate of enzyme reaction (slope). Square root-transformed data are used for analysis of variance and nonlinear dose response curve fitting for both agonist and antagonist modes. Huber weighting is used to down-weight the effects of outliers. EC50 or IC50 values are calculated from the retransformed values. JMP software (SAS Institute, Inc.) is used for both one-way analysis of variance and non-4 linear dose response analysis in both single dose and dose response studies.
Progesterone and trimegestone are reference progestins and RU486 is the reference antiprogestin. All reference compounds are run in full dose response curves and the EC50 and IC50 values are calculated.

IC50 (PR antagonist, comparative example text, read-out: IC50 in the T47D alkaline phosphatase assay): 3.4 nM
IC50 (T47D cells, antagonist mode in the presence of 1 nM progesterone, 24 hours, read-out: IC50 (nM), T47D Cell Alkaline Phosphatase Assay): 5.4 nM
SMILES: Cn1c(C#N)ccc1-c1cc(F)c2c(c1)C(C)(C)C(=O)N2 [5-(7-fluoro-3,3-dimethyl-2-oxo-2,3-dihydro-1H-indol-5-yl)-1-methyl-1H-pyrrole-2-carbonitrile]

— patent publication US7317037B2, “Progesterone receptor modulators comprising pyrrole-oxindole derivatives and uses thereof” (Wyeth, priority 2004, dated 2008)
